These results are taken from patent publication US9765075B2, “Substituted bridged urea analogs as sirtuin modulators” (GLAXOSMITHKLINE LLC, priority 2013, dated 2017).

Read-outs that look alike come from different tables or passages of the source.

In this assay the target is T1, SIRT1 (Homo sapiens, UniProt Q96EB6).
T1 sequence (Q96EB6 1-747): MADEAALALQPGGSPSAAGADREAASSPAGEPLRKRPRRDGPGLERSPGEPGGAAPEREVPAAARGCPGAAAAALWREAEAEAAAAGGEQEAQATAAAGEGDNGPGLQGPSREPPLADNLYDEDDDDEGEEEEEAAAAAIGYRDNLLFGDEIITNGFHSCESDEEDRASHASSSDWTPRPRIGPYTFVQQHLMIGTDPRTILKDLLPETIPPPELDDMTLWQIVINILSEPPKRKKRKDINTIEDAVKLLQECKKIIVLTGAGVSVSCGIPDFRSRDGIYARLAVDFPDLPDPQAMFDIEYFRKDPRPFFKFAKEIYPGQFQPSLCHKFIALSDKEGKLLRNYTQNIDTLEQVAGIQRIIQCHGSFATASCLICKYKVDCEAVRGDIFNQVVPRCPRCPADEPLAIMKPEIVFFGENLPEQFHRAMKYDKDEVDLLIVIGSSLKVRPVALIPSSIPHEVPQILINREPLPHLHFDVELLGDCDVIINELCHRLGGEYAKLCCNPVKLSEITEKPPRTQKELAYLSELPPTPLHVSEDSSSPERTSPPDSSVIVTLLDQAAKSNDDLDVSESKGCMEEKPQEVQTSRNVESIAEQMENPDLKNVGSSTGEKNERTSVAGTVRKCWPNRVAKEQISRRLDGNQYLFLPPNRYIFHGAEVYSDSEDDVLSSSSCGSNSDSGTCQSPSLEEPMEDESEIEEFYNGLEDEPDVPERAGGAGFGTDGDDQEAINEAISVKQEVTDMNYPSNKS
Nature of the assay: Trp mass spectrometry assay (SIRT1 activation). Format: biochemical. The following applies: for Emax: percent maximum fold activation of SIRT1, read-out: Tryp % Fold Act. The essentials:
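Activation is expressed as EC1.5, the concentration raising activity 50% above DMSO control, and as maximum percent of control. Mass-spec readout was OAADPR or deacetylated Trp peptide after a formic-acid-quenched 25-min, 25 °C reaction: 10 nM bacterially expressed His-SIRT1, 0.5 μM acetyl-p53-derived peptide, 120 μM NAD+, pH 7.5 HEPES with […].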

The mark [1] stands for this setting: Trp mass spectrometry assay, EC1.5 = concentration of test compound that results in 150% activation of SIRT1.
The mark [2] stands for this setting: concentration of test compound that results in 150% activation of SIRT1, Trp peptide substrate.

Regarding `O=C(Nc1cccnc1)N1c2nc(-c3cccc(C(F)(F)F)c3)ccc2N2CCC[C@@H]1C2` [Example 194], under setting [1], the “Tryp AVG EC1.5 (μM)” value is given as “A (EC1.5<1 μM)”. Besides, the Emax (Trp mass spectrometry assay) is ≥ 150%.
The corresponding values for `O=C(Nc1ccncc1)N1c2nc(-c3cccc(C(F)(F)F)c3)ccc2N2CCC[C@@H]1C2` [Example 195] are “B (EC1.5 1-25 μM)” and ≥ 150%.
The corresponding values for `O=C(Nc1cccnn1)N1c2nc(-c3cccc(C(F)(F)F)c3)ccc2N2CCC[C@@H]1C2` [Example 196] are “B (EC1.5 1-25 μM)” and ≥ 150%.
The corresponding values for `COc1cncc(NC(=O)N2c3nc(-c4cccc(OC(F)(F)F)c4)ccc3N3CC[C@H]2C3)n1` [Example 197] are “A (EC1.5<1 μM)” and ≥ 150%.
Turning to `O=C(Nc1cncc(F)c1)N1c2nc(-c3cccc(N4CCCC4)c3)ccc2N2CC[C@H]1C2` [Example 198], under setting [1], the “Tryp AVG EC1.5 (μM)” value was “B (EC1.5 1-25 μM)”. For the same compound, where the note is “Trp mass spectrometry assay”, the Emax is ≥ 150%.
For `Cn1cc(NC(=O)N2c3nc(-c4cccc(N5CCCC5)c4)ccc3N3CC[C@H]2C3)cn1` [Example 199], in that order: “B (EC1.5 1-25 μM)” and ≥ 150%.
The corresponding values for `CN(C(=O)N1c2nc(-c3cccc(C(F)(F)F)c3)ccc2N2CC[C@H]1C2)c1ccccn1` [Example 200] are “C (EC1.5>25 μM)” and < 150%.
With `Cc1nc(NC(=O)N2c3nc(-c4cccc(C(F)(F)F)c4)ccc3N3CC[C@@H]2C3)sc1C` [Example 201], the “Tryp AVG EC1.5 (μM)” value under setting [1] is given as “B (EC1.5 1-25 μM)”. Besides, the Emax (Trp mass spectrometry assay) was ≥ 150%.
For `O=C(Nc1ccncn1)N1c2nc(-c3cccc(C(F)(F)F)c3)ccc2N2CC[C@@H]1C2` [Example 202], in that order: “B (EC1.5 1-25 μM)” and ≥ 150%.
For `O=C(Nc1ccc(F)cn1)N1c2nc(-c3cccc(C(F)(F)F)c3)ccc2N2CC[C@@H]1C2` [Example 203], in that order: “B (EC1.5 1-25 μM)” and ≥ 150%.
The corresponding values for `O=C(Nc1ccc(F)cn1)N1c2nc(-c3cccc(Cl)c3)ccc2N2CC[C@@H]1C2` [Example 204] are “B (EC1.5 1-25 μM)” and ≥ 150%.
Take `COc1cccc(-c2ccc3c(n2)N(C(=O)Nc2ccc(F)cn2)[C@@H]2CCN3C2)c1` [Example 205]: the “Tryp AVG EC1.5 (μM)” value under setting [1] is “B (EC1.5 1-25 μM)”. In addition, for the setting “Trp mass spectrometry assay”, the Emax is ≥ 150%.
Turning to `O=C(Nc1cnccn1)N1c2nc(-c3cccc(N4CCCC4)c3)ccc2N2CC[C@H]1C2` [Example 206], the “Tryp AVG EC1.5 (μM)” value under setting [1] is “B (EC1.5 1-25 μM)”. The Emax (Trp mass spectrometry assay) was ≥ 150%.
For `Cn1ncc2cc(NC(=O)N3c4nc(-c5cccc(N6CCCC6)c5)ccc4N4CC[C@H]3C4)ccc21` [Example 207], in that order: “A (EC1.5<1 μM)” and ≥ 150%.
The corresponding values for `Cn1ccc(NC(=O)N2c3nc(-c4cccc(N5CCCC5)c4)ccc3N3CC[C@H]2C3)n1` [Example 208] are “B (EC1.5 1-25 μM)” and ≥ 150%.
In the case of `COc1cc(NC(=O)N2c3nc(-c4cccc(C#N)c4)ccc3N3CCC[C@@H]2C3)ncn1` [Example 209], the “Tryp AVG EC1.5 (μM)” value under setting [1] is reported as “C (EC1.5>25 μM)”. The Emax (Trp mass spectrometry assay) was < 150%.
The corresponding values for `N#Cc1cccc(-c2ccc3c(n2)N(C(=O)Nc2cccnc2)[C@@H]2CCCN3C2)c1` [Example 210] are “B (EC1.5 1-25 μM)” and ≥ 150%.
For `O=C(Nc1ccncn1)N1c2nc(N3CCCC(C(F)(F)F)C3)ccc2N2CC[C@H]1C2` (stereo partly drawn) [Example 211], in that order: “B (EC1.5 1-25 μM)” and ≥ 150%.
For `O=C(Nc1cccc(-c2cnco2)c1)N1c2nc(N3CCCC(C(F)(F)F)C3)ccc2N2CC[C@H]1C2` (stereo partly drawn) [Example 212], in that order: “A (EC1.5<1 μM)” and ≥ 150%.
Turning to `Cc1cc(C)nc(NC(=O)N2c3nc(N4CCCC(C(F)(F)F)C4)ccc3N3CC[C@H]2C3)c1` (stereo partly drawn) [Example 213], the “Tryp AVG EC1.5 (μM)” value under setting [1] is “B (EC1.5 1-25 μM)”. Besides, the Emax (Trp mass spectrometry assay) is ≥ 150%.
The corresponding values for `Cc1csc(NC(=O)N2c3nc(N4CCCC(C(F)(F)F)C4)ccc3N3CC[C@H]2C3)n1` (stereo partly drawn) [Example 214] are “A (EC1.5<1 μM)” and ≥ 150%.
For `Cc1nc(NC(=O)N2c3nc(N4CCCC(C(F)(F)F)C4)ccc3N3CC[C@H]2C3)sc1C` (stereo partly drawn) [Example 215], in that order: “B (EC1.5 1-25 μM)” and ≥ 150%.
For `CN(C)c1cc(NC(=O)N2c3nc(N4CCCC(C(F)(F)F)C4)ccc3N3CC[C@H]2C3)ccn1` (stereo partly drawn) [Example 216], in that order: “A (EC1.5<1 μM)” and ≥ 150%.
In the case of `CN(C)c1ccnc(NC(=O)N2c3nc(N4CCCC(C(F)(F)F)C4)ccc3N3CC[C@H]2C3)n1` (stereo partly drawn) [Example 217], under setting [1], the “Tryp AVG EC1.5 (μM)” value was “B (EC1.5 1-25 μM)”. In addition, the Emax (Trp mass spectrometry assay) is ≥ 150%.
In the case of `O=C(Nc1cncc(F)c1)N1c2nc(-c3cccc(Cl)c3)ccc2N2CC[C@@H]1C2` [Example 218], under setting [2], the “Tryp AVG EC1.5 (μM)” value is “A (EC1.5<1 μM)”. For the same compound, the Emax (Trp peptide substrate) was ≥ 150%.
For `COc1cccc(-c2ccc3c(n2)N(C(=O)Nc2ccccn2)[C@@H]2CCN3C2)c1` [Example 219], in that order: “B (EC1.5 1-25 μM)” and ≥ 150%.
The corresponding values for `Cc1cc(-c2ccc3c(n2)N(C(=O)Nc2ccccn2)[C@H]2CCN3C2)ccn1` [Example 220] are “A (EC1.5<1 μM)” and ≥ 150%.
The corresponding values for `Cc1ccc(-c2ccc3c(n2)N(C(=O)Nc2ccccn2)[C@H]2CCN3C2)cn1` [Example 221] are “B (EC1.5 1-25 μM)” and ≥ 150%.
As for `Cc1cc(-c2ccc3c(n2)N(C(=O)Nc2cnccn2)[C@H]2CCN3C2)ccn1` [Example 222], the “Tryp AVG EC1.5 (μM)” value under setting [2] is reported as “A (EC1.5<1 μM)”. Moreover, where the note is “Trp peptide substrate”, the Emax is ≥ 150%.
The corresponding values for `Cc1cc(-c2ccc3c(n2)N(C(=O)Nc2ccc(F)cn2)[C@H]2CCN3C2)ccn1` [Example 223] are “A (EC1.5<1 μM)” and ≥ 150%.
As to `Cc1ccc(-c2ccc3c(n2)N(C(=O)Nc2cncc(F)c2)[C@H]2CCN3C2)cn1` [Example 224], under setting [2], the “Tryp AVG EC1.5 (μM)” value is “B (EC1.5 1-25 μM)”. The Emax (Trp peptide substrate) was ≥ 150%.
The corresponding values for `N#Cc1cccc(-c2ccc3c(n2)N(C(=O)Nc2ccccn2)[C@@H]2CCCN3C2)c1` [Example 225] are “B (EC1.5 1-25 μM)” and ≥ 150%.
`N#Cc1cccc(-c2ccc3c(n2)N(C(=O)Nc2cccnn2)[C@@H]2CCCN3C2)c1` [Example 226]: the “Tryp AVG EC1.5 (μM)” value under setting [2] is reported as “B (EC1.5 1-25 μM)”. Besides, the Emax (Trp peptide substrate) was ≥ 150%.
In the case of `N#Cc1cccc(-c2ccc3c(n2)N(C(=O)Nc2ccc(F)cn2)[C@@H]2CCCN3C2)c1` [Example 227], the “Tryp AVG EC1.5 (μM)” value under setting [2] is “B (EC1.5 1-25 μM)”. Moreover, where the note is “Trp peptide substrate”, the Emax was ≥ 150%.
Turning to `N#Cc1cccc(-c2ccc3c(n2)N(C(=O)Nc2cncc(F)c2)[C@@H]2CCCN3C2)c1` [Example 228], the “Tryp AVG EC1.5 (μM)” value under setting [2] is “B (EC1.5 1-25 μM)”. The Emax (Trp peptide substrate) is ≥ 150%.
In the case of `O=C(Nc1cccnc1)N1c2nc(N3CCCC(C(F)(F)F)C3)ccc2N2CC[C@H]1C2` (stereo partly drawn) [Example 229], the “Tryp AVG EC1.5 (μM)” value under setting [2] is “B (EC1.5 1-25 μM)”. In addition, under “Trp peptide substrate”, the Emax is ≥ 150%.
